Measurements published in publication PMC7570662, “In Vivo Pharmacokinetic Analysis Utilizing Non-Targeted and Targeted Mass Spectrometry and In Vitro Assay against Transient Receptor Potential Channels of Maobushisaishinto and Its Constituent Asiasari Radix” (Molecules, 2020).

Assay: Qualitative non-targeted LC-HRMS analysis of AR compounds in rat plasma after oral AR or MBST
Type: in vivo
Description: Extract powders of AR or MBST were suspended in distilled water and orally administered to rats having fasted for approximately 16 h. The dose of AR was set at 2 g/kg, and the MBST doses were set at 1 and 2 g/kg. 1 g/kg MBST contained 578 µg/kg, 147 µg/kg, 226 µg/kg, 426 µg/kg asarinin, sesamin, methyl kakuol, and amide A, respectively. The doses were chosen based on a previous pharmacological study of MBST using rats.
According to previous pharmacokinetic studies of herbal medicines, many of the components were quickly absorbed into the bloodstream, thereby providing the rationale for a sampling time at 1 h. Blood was centrifuged at 1200× g at 4 °C for 30 min to obtain plasma; then, the sample was stored at −80 °C until LC-HRMS analysis. […]
The plasma samples were collected at 1 h after MBST administration in case of both the qualitative (non-targeted) analysis and the quantitative (targeted) analysis.
The plasma samples of AR- or MBST-treated rats collected at 1 h post-administration were pretreated by deproteinization using methanol before the LC-HRMS analysis as follows: 100 µL plasma sample was mixed with 500 µL methanol, and the resultant solution was vortexed for 2 min. The mixture was centrifuged at 7000× g at 4 °C for 5 min. The supernatant was dried using a centrifugal evaporator, and the dried residue was dissolved in 100 μL of the initial LC mobile phase which is composed of 0.1 vol% formic acid in water/acetonitrile (99.9/0.1, v/v) and recentrifuged at 7000× g at 4 °C for 5 min. Finally, a 5 μL aliquot of the supernatant was injected into the LC-HRMS system comprised of an Acquity Ultra-Performance Liquid Chromatography System (Waters, Milford, MA, USA) and a Xevo G2-XS quadrupole time-of-flight MS (Waters) and was chromatographically separated using an ACQUITY UPLC HSS T3 column (2.1 × 150 mm I.D., 1.8-μm particle size; Waters) with an ACQUITY UPLC HSS T3 VanGuard Pre-column (2.1 mm × 5 mm I.D., 1.8-μm particle size; Waters) at 40 °C. The mobile phase consisted of solution A (0.1% formic acid, v/v) and solution B (acetonitrile) with a gradient of solution B (0.1%, 0 min; 99%, 24 min; v/v) at a flow rate of 0.4 mL/min. The analysis of the mass spectrometer fit with an electrospray ionization probe with sensitivity mode was performed for both the positive and negative ion mode. The resolution of the mass spectrometer was set at >20,000. For MS^E experiments, two acquisition functions with different collision energies were created: a low-energy function with a collision energy of 6 eV and a high-energy function with collision energy ranging from 15 to 40 eV.

(2E,4E,9E)-8,11-Dihydroxy-N-isobutyl-2,4,9-dodecatrienamide, (2E,4E,8Z)-10,11-Dihydroxy-N-isobutyl-2,4,8-dodecatrienamide
AR-Treated Rat Plasma (detection of compound) (rat plasma 1 h after oral 2 g/kg AR, n = 1, LC-HRMS): + (The number of plus signs represents the sample number in which the compound was detected among AR-treated rat plasma (n = 1) and MBST-treated rat plasma (n = 3)) | MBST-Treated Rat Plasma (detection of compound) (rat plasma 1 h after oral 2 g/kg MBST, n = 3, LC-HRMS): + + + (The number of plus signs represents the sample number in which the compound was detected among AR-treated rat plasma (n = 1) and MBST-treated rat plasma (n = 3))
